In ChEMBL document CHEMBL5131490, “5-Substituted 3, 3', 4', 7-tetramethoxyflavonoids - A novel class of potent DNA triplex specific binding ligands” (Bioorg Med Chem Lett, 2022):
Calls of active or inactive are those of the source. No cut-off for these calls is given here.

Legend:
[1] = Stabilization of [poly(dA).poly(dT)] triplex DNA (unknown origin) assessed as change in melting temperature at 10 uM by UV based assay
[2] = Binding affinity to triplex DNA1 containing 15 nucleotide-long triplex-forming region (unknown origin) assessed as change in melting temperature at 10 uM by UV based assay
[3] = Stabilization of [poly(dA).2poly(dT) triplex DNA (unknown origin) assessed as melting temperature at 10 uM by DSC assay (reference value: 36.8 degC)
[4] = Stabilization of [poly(dA).2poly(dT) triplex DNA (unknown origin) assessed as deltaH level temperature at 10 uM by DSC assay (reference value: 5.19 KJ/mol)
[5] = Stabilization of [poly(dA).2poly(dT) triplex DNA (unknown origin) assessed as deltaS level temperature at 10 uM by DSC assay (reference value: 0.0167 mol.K)
[6] = Stabilization of [poly(dA).2poly(dT) triplex DNA (unknown origin) assessed as effect on CD spectrum up to 25 uM by CD spectroscopy
[7] = Binding affinity to triplex DNA1 containing 15 nucleotide-long triplex-forming region (unknown origin) at 100 uM by ITC
[8] = Stabilization of [poly(dA).2poly(dT) triplex DNA (unknown origin) assessed as melting temperature at 20 uM by Thermal denaturation assay
[9] = Stabilization of [poly(dA).2poly(dT) triplex DNA (unknown origin) assessed as increase in melting temperature at 1 uM by Thermal denaturation assay

## CCCCN(CCCC)CCCCOc1cc(OC)cc2oc(-c3ccc(OC)c(OC)c3)c(OC)c(=O)c12
[1]
  ΔTm: 3.3 °C
[2]
  ΔTm: 5.6 °C

## COc1cc(O)c2c(=O)c(OC)c(-c3ccc(OC)c(OC)c3)oc2c1
[1]
  ΔTm: 2.5 °C
[3]
  Tm: 38.5 °C
[4]
  deltaH: 1.24 kcal/mol
[5]
  deltaS: 0.0167 KJ/(mol.K)
[6]
  Activity: Active
[2]
  ΔTm: 3.2 °C

## CCN(CC)CCCCOc1cc(OC)cc2oc(-c3ccc(OC)c(OC)c3)c(OC)c(=O)c12
[1]
  ΔTm: 14.5 °C
[2]
  ΔTm: 11.2 °C

## CCCN(CCC)CCCCOc1cc(OC)cc2oc(-c3ccc(OC)c(OC)c3)c(OC)c(=O)c12
[1]
  ΔTm: 10.3 °C
[2]
  ΔTm: 11.2 °C

## COc1cc(OCCCCN2CCN(C)CC2)c2c(=O)c(OC)c(-c3ccc(OC)c(OC)c3)oc2c1
[1]
  ΔTm: 12.3 °C
[2]
  ΔTm: 5.6 °C

## CCCCCN(CCCCC)CCCCOc1cc(OC)cc2oc(-c3ccc(OC)c(OC)c3)c(OC)c(=O)c12
[1]
  ΔTm: 2.4 °C
[2]
  ΔTm: 5.6 °C

## COc1cc(OCCCCN2CCCC2)c2c(=O)c(OC)c(-c3ccc(OC)c(OC)c3)oc2c1
[1]
  ΔTm: 17.4 °C
[3]
  Tm: 48.9 °C
[4]
  deltaH: 2.08 kcal/mol
[5]
  deltaS: 0.0271 KJ/(mol.K)
[6]
  Activity: Active
[2]
  ΔTm: 12.6 °C
[7]
  Ka: 310000 M⁻¹

## NC[C@@H]1O[C@H](O[C@H]2[C@@H](O)[C@H](O[C@@H]3[C@@H](O)[C@H](N)C[C@H](N)[C@H]3O[C@H]3O[C@H](CN)[C@@H](O)[C@H](O)[C@H]3N)O[C@@H]2CO)[C@H](N)[C@@H](O)[C@@H]1O
[8]
  Tm: 24 °C
[7]
  Ka: 160000 M⁻¹

## COc1cc(OCCCCN2CCCCC2)c2c(=O)c(OC)c(-c3ccc(OC)c(OC)c3)oc2c1
[1]
  ΔTm: 16.4 °C
[8]
  Tm: 24 °C
[9]
  ΔTm: 6 °C
[2]
  ΔTm: 13.6 °C
